Experimental data as given in patent US20220257596A1, “METHODS FOR TREATING MEIBOMIAN GLAND DYSFUNCTION WITH LIVER X RECEPTOR AGONISTS” (Novartis AG, priority 2019, published 2022).

Key:
[1] = test system: SCD1 protein production in SZ95-SCD1-HiBit cells; assay: Measurement of SCD1 expression in SZ95-SCD1-HiBit cells (HiBiT assay); assay type: cell-based; settings: Homo sapiens
Method: SZ95-SCD1-HiBit cells were seeded in 384-well cell culture white plates at a density of 3000 cells/30 ul. Water is added to edge wells to avoid evaporation. Cells were incubated in a humidified incubator with 5% CO2 at 37° C. overnight. Tested compounds were diluted at a ratio of 1:3 using Agilent BRAVO Automated Liquid Handling Platform and added to cells at final concentrations starting from 18 μM. Compound H was used as a reference compound in each plate. Cells in the assay plate were incubated in a humidified incubator with 5% CO2 at 37° C. for 48h.
The assay plates were removed from the incubator and allowed to equilibrate to room temperature. Nano-Glo® HiBiT Detection Reagent (Promega; a mixture of Nano-Glo HiBiT Detection Buffer, Nano-Glo HiBiT Detection Substrate, and LgBiT protein) was added into assay plates, at a volume equal to cell culture medium in each well. Plates were placed on an orbital shaker at a speed of 300-600 rpm for 10 min at room temperature, and read on an EnVision Plate Reader using luminescence detection with a 1 second read time.
The assay measures the increase in SCD1 protein production in vitro. Amax refers to the percent […] of the tested compound compared to the reference compound.

[2] = test system: SZ95 (immortalized human sebaceous gland cells) cells; assay: Sentinel lipid assay (desaturation index in SZ95 sebocytes); assay type: cell-based
Method: SZ95 (immortalized human sebaceous gland cells) cells were seeded in Greiner bio-one 96-well polypropylene plates that were pre-treated with 50 μg/ml Human Plasma Fibronectin (Thermo Fisher Scientific) at a density of 10^4 cells/135 μl. Cells were incubated in a humidified incubator with 5% CO2 at 37° C. overnight. Test compounds were diluted at a ratio of 1:3 and added to cells at final concentrations starting from 10 μM. Compound H was used as a positive control reference compound in each plate. Cells in the assay plate were incubated in a humidified incubator with 5% CO2 at 37° C. for 72h.
Culture medium was removed from the cells and cells in culture plates were washed with ice cold phosphate buffered saline three times. Plates were heat sealed and stored in a −80° C. freezer prior to Sentinel lipid assay.
Sentinel lipid assay: The sentinel lipid assay was used quantify the change in the global desaturation index in SZ95 sebocytes upon administration of LXR agonist compounds. The assay measures a smaller subset of lipid analytes in […] (termed “sentinel lipids”) which would model the global changes the population of both saturated and desaturated lipids in the cells. In order to define this smaller subset of lipids, a complete lipid profile was recorded on dose response curves (eight levels from 4 nM to 10 uM) of Compounds A-N. An elastic net regression model was applied separately to both the saturated and desaturated lipids to determine the minimum combination of coefficients and analytes which could be used to adequately model the total population of lipids. The elastic net model was able to reduce the behavior of 425 lipids to 11 lipids and the correlation between the desaturation indices observed using the complete set of lipids with from the 11 sentinel lipids was 0.96.
A medium throughput assay was created using this reduced set of sentinel lipids. A single batch is defined as triplicate examples of three unique plates (i.e., a single batch of cells is used to create nine plates for LC-MSMS analysis). Lipids were extracted from the cells using a 1:1 mixture of methylene chloride/methanol containing 10 nM of deuterated standards of triglycerides, which are used as internal standards for quantitating the lipid abundance. The lipids were separated prior to mass spectrometric analysis using a five minute HPLC gradient. The abundance of the sentinel lipids and the internal standards are measured using multiple reaction monitor mode (MRM) on a triple quadrupole mass spectrometer. The data was transformed from total ion current to nmoles/10^6 cells, which are multiplied by the coefficients from the elastic net model to determine the effective desaturated and saturated content, and therein the desaturation index of the dosed cells. In order to compare compounds from multiple batches with one another, the measure raw desaturation index was normalized by dividing it by the desaturation index of the DMSO dosed cells, and all data was assessed as the fraction by which the compound increases the desaturation index above 1. The Amax value refers to the percent […] of the tested compound compared to the reference compound.

[3] = Eyelid pharmacokinetics: compound concentration in rabbit meibomian gland; assay type: in vivo
Method: A formulation of 1% Compound G as a suspension in a suitable vehicle was administered to rabbits as follows. Animals were sedated and the eyelashes and hair on both eyes on both lids trimmed as short as possible. Thirty microliters of the 1% Compound G was drawn up into a pipette and carefully pipetted around the entire eyelid of the animal a few millimeters back from the edge of the lid so as to prevent the material from leaking onto the eye itself. Following application, a cotton swab or eye spear was used to gently try and massage the material into the skin. At the appropriate time points, the animals were euthanized and meibomian glands removed and the concentration of the compound in meibomian glands was measured. The experiment was conducted in triplicate and the results below illustrate mean concentration in nM.

Compound CCOC(=O)Cn1nc(C(F)(F)F)cc1-c1ccc(-c2cccc(S(C)(=O)=O)c2)cc1 [Compound G, ethyl 2-(5-(3′-(methylsulfonyl)-[1,1′-biphenyl]-4-yl)-3-(trifluoromethyl)-1H-pyrazol-1-yl)acetate] has an EC50 ([1]; SZ95-SCD1-HiBit cells, 48h incubation, top concentration 18 μM) of 111 nM, an Emax ([1]; percent compared to the reference compound (Compound H), 48h, read-out: HiBit Amax) of 70.7% and an EC50 ([2]; SZ95 cells, 72h incubation, top concentration 10 μM, desaturation index, read-out: SLA EC50) of 243 nM. For the same compound, the Emax ([2]; percent compared to the reference compound (Compound H), 72h, read-out: SLA Amax) was 98.8%, the “Uptake into the meibomian gland” value ([3]; 1% suspension on eyelid, in words) was “sustained for at least six hours” and the concentration at 0.5 h ([3]; meibomian gland, topical, 0.5 h, 30 microliters of 1% suspension applied to eyelid, triplicate) was 2630 nM. It also gave a concentration at 3 h ([3]; meibomian gland, topical, 3 h, 30 microliters of 1% suspension applied to eyelid, triplicate) of 3780 nM and a concentration at 6 h ([3]; meibomian gland, topical, 6 h, 30 microliters of 1% suspension applied to eyelid, triplicate) of 1050 nM.
